Laboratory results: US7897772B2, “Acid addition salt of irinotecan” (priority 2004, dated 2011)
Structures can show the parent of a compound that is named as a salt.

Experiments:
[1] = Dissolution of irinotecan acid addition salts in water at 100 mg/mL at room temperature and state of the solution after 6 days of stirring (Example 1); format: physicochemical; conditions: for State of the Solution after Day 6 (footnote symbol: salt not dissolved): 100 mg/mL in water at room temperature; for Dissolution of the salt in water at room temperature: salt content adjusted to 100 mg/mL, no heating
Experimental: To an aqueous suspension of irinotecan (1-ethyl-10-[4-(1-piperidino)-1-piperidino]carbonyloxycamptothecin) produced through the method disclosed in Patent Document 1, each acid species was added, to thereby produce a corresponding irinotecan acid addition salt. The irinotecan acid addition salt content was adjusted to 100 mg/mL. […] Each of the aqueous solutions employing sulfuric acid, phosphoric acid methanesulfonic acid, citric acid, maleic acid, and succinic acid, respectively, was filtered by a membrane filter, and the filtrate was stirred at room temperature (25° C.). After continuous stirring for 6 days, the aqueous solution was visually observed so as to evaluate the state of the solution.

[2] = Dissolution of 100 mg/mL salt suspensions on heating and later crystal deposition at 25° C. (Example 2); format: physicochemical; conditions: for Dissolution on heating: 100 mg/mL
Experimental: The thus-produced irinotecan nitric acid addition salt solution was stirred at 25° C. After stirring of the solution for about 42 hours, crystals of the irinotecan nitric acid addition salt were deposited.

SMILES | State of the Solution after Day 6 (footnote symbol: salt not dissolved) [1] | Dissolution of the salt in water at room temperature ([1]; listed as nitric acid) | Stirring time after which crystals were deposited ([2]; 100 mg/mL solution dissolved by heating, then stirred at 25° C.) | Dissolution on heating ([2]; 70° C. under stirring for three minutes) | Dissolution of the salt in water at room temperature [1] | Dissolution on heating ([2]; stirred at 100° C. for 30 minutes)
CCc1c2c(nc3ccc(OC(=O)N4CCC(N5CCCCC5)CC4)cc13)-c1cc3c(c(=O)n1C2)COC(=O)[C@]3(O)CC [Irinotecan nitric acid addition salt, irinotecan nitric acid salt] | *1 | not dissolved in water at room temperature | about 42 hours | completely dissolved |  | 
Br.CCc1c2c(nc3ccc(OC(=O)N4CCC(N5CCCCC5)CC4)cc13)-c1cc3c(c(=O)n1C2)COC(=O)C3(O)CC (stereo not shown) [Irinotecan hydrobromic acid addition salt, reference compound] | *1 |  |  |  | not dissolved in water at room temperature | maintained undissolved
